Assay results: US11135445B2, “Antimicrobial photodynamic inactivation procedure and system” (The General Hospital Corporation, priority 2014, dated 2021)

Assays:
[1] = system: S. aureus; experiment: MB-mediated PDI in vitro with/without KI; type: cell-based, Staphylococcus aureus (NCTC 8325); settings: without light
Protocol: (§1) 2) Staphylococcus aureus (NCTC 8325) and Escherichia coli K12 (ATCC 33780) were chosen as representative Gram (+) and Gram (−) bacteria respectively, for in vitro studies. A colony of bacteria was suspended in 25 ml of brain heart infusion (BHI) broth (Becton, Dickinson, and Company, Franklin Lakes, N.J.) and grown overnight in a shaker incubator (New Brunswick Scientific, Edison, N.J.) at 120 rpm in aerobic condition at 37° C. An aliquot of 1 ml from overnight suspension was refreshed in fresh BHI for 2 hours at 37° C. to mid-log phase. Cell concentration was estimated by measuring the optical density (OD) at 600 nm [OD of 0.8=10^8 colony forming units (CFU) cells/mL]. Bacterial suspension was centrifuged, washed and re-suspended in PBS to arrest microbial growth, and used (10^8 CFU) for the in vitro or in vivo experiments.
(§2) In vitro PDI studies were carried with S. aureus and with E. coli. […] An aliquot of 100 ul was used as dark control from each sample, another (100 ul) was irradiated with 5 J/cm^2 dose of light (660 nm light) and then placed in a new 96 well plate. The aliquots were serially diluted 10-fold in PBS to give dilutions of 10^1 to 10^5 times in addition to the original concentration. From each dilution 10 microleter aliquots were seeded horizontally on BHI agar. […] Each experiment was performed at least three times.

[2] = system: E. coli; experiment: Bacteria added after completion of light delivery (MB); type: cell-based, Escherichia coli; settings: solution irradiated 5 J/cm^2, incubation 5-30 minutes
Protocol: (§3) To verify if long-lived species such as molecular iodine (I2) or hypoiodous acid (HOI) could be responsible for increased bacterial killing we added bacteria after completion of light delivery.
(§4) We irradiated with 5 J/cm^2 the solutions containing MB or MB+KI to generate the iodine species observed in the spectra described above. Since […] is a stable molecule, and even HOI is reasonably stable with a measurable half-life, by incubating the cells in a solution that could contain photochemically produced bactericidal concentrations of I2 or HOI, we expected to observe bacterial killing. We added bacterial cells and we evaluated the survival fraction of bacteria in an incubation time range between 5 and 30 minutes.

[3] = system: S. aureus; experiment: as above; type: cell-based, Staphylococcus aureus; settings: solution irradiated 5 J/cm^2, incubation 5-30 minutes
Protocol: as §3, §4

[4] = system: E. coli; experiment: MB-mediated PDI in vitro with/without KI; type: cell-based, Escherichia coli K12 (ATCC 33780); settings: without light
Protocol: as §1, §2

[5] = system: MRSA; experiment: In vivo PDI of burn infected with bioluminescent MRSA; parameters: species or system murine
Text: In another related embodiment, the implementation of invention as discussed in Example 1 was extended to in vivo studies in a murine infection model of burn and carried out with the use of bioluminescent MRSA and in vivo imaging. The goal here was to verify the increase of the efficacy of PDI-process of bacterial killing by adding KI to MB in an in vivo infection model.
Aggregately, FIGS. 17A through 17E represent a set of 5 representative bioluminescence image time courses from the burn (each time course from a single mouse in each of the 5 groups) infected with MRSA. […] The amount of light required to eradicate bacteria from the wound was much less when the bacteria treated with the (MB+KI) solution was irradiated than when MB alone was used to pre-treat bacteria prior to irradiation.

Structure (SMILES): CN(C)c1ccc2nc3ccc(=[N+](C)C)cc-3sc2c1 [MB, Methylene blue]
- dark toxicity [1]: lack of killing without light
- killing of bacteria added after irradiation of the solution [2]: did not observe any bacterial killing
- killing of bacteria added after irradiation of the solution [3]: did not observe any bacterial killing
- dark toxicity [4]: lack of killing without light
- bacterial bioluminescence during PDI ([5]; 50 μM MB, with or without 10 mM KI, 660 nm up to 150 J/cm^2): light dose-dependent reduction
- decrease in bacterial bioluminescence ([5]; 660 nm light, n=6): around 2 log unit
- bacterial re-growth / recurrence after PDI ([5]; follow-up over days after PDI): not effective to prevent recurrence
